Measurements as given in patent US20230085307A1, “PYRIDAZINONE COMPOUND AND HERBICIDE” (NISSAN CHEMICAL CORPORATION, priority 2019, published 2023).

Columns and labels:
[1] = test system: late watergrass; experiment: Test Example 1: herbicidal activity, application before weed generation under submerged conditions (Table 16, symbol A); assay type: in vivo, late watergrass (Echinochloa oryzicola); conditions: 320 g/ha applied herbicide
Procedure, shortened: (§1)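 Emulsion formulation, water-diluted to set dose, was put onto the flooded surface (4 cm depth, alluvial soil) the same day weeds were sown and 2.5-leaf rice transplanted. After 3 weeks at 25-30 °C under glass, each species was rated 0 (≤5% kill) to 5 (≥90% kill).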

[2] = test system: Japanese bulrush; experiment: Test Example 1: herbicidal activity, application before weed generation under submerged conditions (Table 16, symbol B); assay type: in vivo, Japanese bulrush (Schoenoplectus juncoides); conditions: 320 g/ha applied herbicide
Procedure, shortened: as §1

[3] = test system: oval-leafed pondweed; experiment: Test Example 1: herbicidal activity, application before weed generation under submerged conditions (Table 16, symbol C); assay type: in vivo, oval-leafed pondweed (Monochoria vaginalis); conditions: 320 g/ha applied herbicide
Procedure, shortened: as §1

[4] = test system: barnyard grass; experiment: Test Example 3: herbicidal effect by foliage application, Wagner pot (Table 18, symbol H); assay type: in vivo, barnyard grass (Echinochloa crus-galli); conditions: amount of applied herbicide 320 g/ha
Procedure, shortened: (§2)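 Plants were sown in alluvial soil held under 0.1–0.5 cm standing water and grown 14 days in a greenhouse at 25–30 °C. An emulsifiable formulation, water-diluted to the set dose, was then sprayed onto the foliage, and effects were scored three weeks later using previously defined criteria.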

[5] = test system: Chinese sprangletop; experiment: Test Example 3: herbicidal effect by foliage application, Wagner pot (Table 18, symbol D); assay type: in vivo, chinese sprangletop (Leptochloa chinensis); conditions: amount of applied herbicide 320 g/ha
Procedure, shortened: as §2

[6] = test system: rice flat sedge; experiment: Test Example 3: herbicidal effect by foliage application, Wagner pot (Table 18, symbol E); assay type: in vivo, rice flat sedge (Cyperus iria); conditions: amount of applied herbicide 320 g/ha
Procedure, shortened: as §2

[7] = test system: southern crabgrass; experiment: Test Example 4: herbicidal effect by soil treatment (Table 19, symbol F); assay type: in vivo, southern crabgrass (Digitaria ciliaris); conditions: amount of applied herbicide 320 g/ha
Procedure, shortened: (§3)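 Step 1: sow seeds in sterilized diluvial soil, cover ~1.5 cm. Step 2: spray diluted emulsion onto soil surface at predetermined rate. Step 3: greenhouse, 25–30° C, three weeks. Step 4: grade effect on each plant by earlier criteria.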

[8] = test system: green foxtail; experiment: Test Example 4: herbicidal effect by soil treatment (Table 19, symbol G); assay type: in vivo, green foxtail (Setaria viridis); conditions: amount of applied herbicide 320 g/ha
Procedure, shortened: as §3

[9] = test system: barnyard grass; experiment: Test Example 4: herbicidal effect by soil treatment (Table 19, symbol H); assay type: in vivo, barnyard grass (Echinochloa crus-galli); conditions: amount of applied herbicide 320 g/ha
Procedure, shortened: as §3

[10] = test system: wild oat; experiment: Test Example 4: herbicidal effect by soil treatment (Table 19, symbol I); assay type: in vivo, wild oat (Avena fatua); conditions: amount of applied herbicide 320 g/ha
Procedure, shortened: as §3

[11] = test system: blackgrass; experiment: Test Example 4: herbicidal effect by soil treatment (Table 19, symbol J); assay type: in vivo, blackgrass (Alopecurus myosuroides); conditions: amount of applied herbicide 320 g/ha
Procedure, shortened: as §3

[12] = test system: Italian ryegrass; experiment: Test Example 4: herbicidal effect by soil treatment (Table 19, symbol K); assay type: in vivo, Italian ryegrass (Lolium multiflorum); conditions: amount of applied herbicide 320 g/ha
Procedure, shortened: as §3

[13] = test system: windgrass; experiment: Test Example 4: herbicidal effect by soil treatment (Table 19, symbol L); assay type: in vivo, windgrass (Apera spica-venti); conditions: amount of applied herbicide 320 g/ha
Procedure, shortened: as §3

[14] = test system: velvetleaf; experiment: Test Example 4: herbicidal effect by soil treatment (Table 19, symbol M); assay type: in vivo, velvetleaf (Abutilon theophrasti); conditions: amount of applied herbicide 320 g/ha
Procedure, shortened: as §3

[15] = test system: redroot pigweed; experiment: Test Example 4: herbicidal effect by soil treatment (Table 19, symbol N); assay type: in vivo, redroot pigweed (Amaranthus retroflexus); conditions: amount of applied herbicide 320 g/ha
Procedure, shortened: as §3

[16] = test system: lambsquarters; experiment: Test Example 4: herbicidal effect by soil treatment (Table 19, symbol O); assay type: in vivo, lambsquarters (Chenopodium album); conditions: amount of applied herbicide 320 g/ha
Procedure, shortened: as §3

[17] = test system: chickweed; experiment: Test Example 4: herbicidal effect by soil treatment (Table 19, symbol P); assay type: in vivo, common chickweed (Stellaria media); conditions: amount of applied herbicide 320 g/ha
Procedure, shortened: as §3

[18] = test system: false cleavers; experiment: Test Example 4: herbicidal effect by soil treatment (Table 19, symbol Q); assay type: in vivo, false cleavers (Galium spurium); conditions: amount of applied herbicide 320 g/ha
Procedure, shortened: as §3

[19] = test system: persian speedwell; experiment: Test Example 4: herbicidal effect by soil treatment (Table 19, symbol R); assay type: in vivo, Persian speedwell (Veronica persica); conditions: amount of applied herbicide 320 g/ha
Procedure, shortened: as §3

[20] = test system: southern crabgrass; experiment: Test Example 5: herbicidal effect by foliage application, plastic box (Table 20, symbol F); assay type: in vivo, southern crabgrass (Digitaria ciliaris); conditions: foliage application, 320 g/ha, evaluated three weeks after application
Procedure, shortened: (§4)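 Foliar spray test: emulsion formulation diluted in water to a set application rate, sprayed onto 14-day-old plants raised in diluvial soil at 25° C to 30° C under glass. Both herbicidal effect and crop effect rated visually three weeks later.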

[21] = test system: green foxtail; experiment: Test Example 5: herbicidal effect by foliage application, plastic box (Table 20, symbol G); assay type: in vivo, green foxtail (Setaria viridis); conditions: foliage application, 320 g/ha, evaluated three weeks after application
Procedure, shortened: as §4

[22] = test system: barnyard grass; experiment: Test Example 5: herbicidal effect by foliage application, plastic box (Table 20, symbol H); assay type: in vivo, barnyard grass (Echinochloa crus-galli); conditions: foliage application, 320 g/ha, evaluated three weeks after application
Procedure, shortened: as §4

[23] = test system: wild oat; experiment: Test Example 5: herbicidal effect by foliage application, plastic box (Table 20, symbol I); assay type: in vivo, wild oat (Avena fatua); conditions: foliage application, 320 g/ha, evaluated three weeks after application
Procedure, shortened: as §4

[24] = test system: blackgrass; experiment: Test Example 5: herbicidal effect by foliage application, plastic box (Table 20, symbol J); assay type: in vivo, blackgrass (Alopecurus myosuroides); conditions: foliage application, 320 g/ha, evaluated three weeks after application
Procedure, shortened: as §4

[25] = test system: Italian ryegrass; experiment: Test Example 5: herbicidal effect by foliage application, plastic box (Table 20, symbol K); assay type: in vivo, Italian ryegrass (Lolium multiflorum); conditions: foliage application, 320 g/ha, evaluated three weeks after application
Procedure, shortened: as §4

[26] = test system: velvetleaf; experiment: Test Example 5: herbicidal effect by foliage application, plastic box (Table 20, symbol M); assay type: in vivo, velvetleaf (Abutilon theophrasti); conditions: foliage application, 320 g/ha, evaluated three weeks after application
Procedure, shortened: as §4

[27] = test system: lambsquarters; experiment: Test Example 5: herbicidal effect by foliage application, plastic box (Table 20, symbol O); assay type: in vivo, lambsquarters (Chenopodium album); conditions: foliage application, 320 g/ha, evaluated three weeks after application
Procedure, shortened: as §4

[28] = test system: chickweed; experiment: Test Example 5: herbicidal effect by foliage application, plastic box (Table 20, symbol P); assay type: in vivo, common chickweed (Stellaria media); conditions: foliage application, 320 g/ha, evaluated three weeks after application
Procedure, shortened: as §4

[29] = test system: false cleavers; experiment: Test Example 5: herbicidal effect by foliage application, plastic box (Table 20, symbol Q); assay type: in vivo, false cleavers (Galium spurium); conditions: foliage application, 320 g/ha, evaluated three weeks after application
Procedure, shortened: as §4

[30] = test system: persian speedwell; experiment: Test Example 5: herbicidal effect by foliage application, plastic box (Table 20, symbol R); assay type: in vivo, Persian speedwell (Veronica persica); conditions: foliage application, 320 g/ha, evaluated three weeks after application
Procedure, shortened: as §4

SMILES: CCCC(=O)Oc1c(C)nn(C)c(=O)c1-c1c(-c2ccc(F)cc2OC)sc2ccc(C)cc12 [2-149]
- Herbicidal effect on A: late watergrass (grade 0-5) [1]: 3 (Herbicidal rate of 40% or more and less than 70%)
- Herbicidal effect on B: Japanese bulrush (grade 0-5) [2]: 1 (Herbicidal rate of 5% or more and less than 20%)
- Herbicidal effect on C: oval-leafed pondweed (grade 0-5) [3]: 0 (Herbicidal rate of 5% or less (almost no effect))
- herbicidal effect on H: barnyard grass [4]: 5 (Herbicidal rate of 90% or more (almost completely withered))
- herbicidal effect on D: Chinese sprangletop [5]: 0 (Herbicidal rate of 5% or less (almost no effect))
- herbicidal effect on E: rice flat sedge [6]: 3 (Herbicidal rate of 40% or more and less than 70%)
- F: southern crabgrass, herbicidal effect rating [7]: 0 (Herbicidal rate of 5% or less (almost no effect))
- G: green foxtail, herbicidal effect rating [8]: 4 (Herbicidal rate of 70% or more and less than 90%)
- H: barnyard grass, herbicidal effect rating [9]: 0 (Herbicidal rate of 5% or less (almost no effect))
- I: wild oat, herbicidal effect rating [10]: 0 (Herbicidal rate of 5% or less (almost no effect))
- J: blackgrass, herbicidal effect rating [11]: 0 (Herbicidal rate of 5% or less (almost no effect))
- K: Italian ryegrass, herbicidal effect rating [12]: 0 (Herbicidal rate of 5% or less (almost no effect))
- L: windgrass, herbicidal effect rating [13]: 0 (Herbicidal rate of 5% or less (almost no effect))
- M: velvetleaf, herbicidal effect rating [14]: 0 (Herbicidal rate of 5% or less (almost no effect))
- N: redroot pigweed, herbicidal effect rating [15]: 5 (Herbicidal rate of 90% or more (almost completely withered))
- O: lambsquarters, herbicidal effect rating [16]: 4 (Herbicidal rate of 70% or more and less than 90%)
- P: chickweed, herbicidal effect rating [17]: 3 (Herbicidal rate of 40% or more and less than 70%)
- Q: false cleavers, herbicidal effect rating [18]: 3 (Herbicidal rate of 40% or more and less than 70%)
- R: persian speedwell, herbicidal effect rating [19]: 3 (Herbicidal rate of 40% or more and less than 70%)
- herbicidal effect on F: southern crabgrass (criteria 0-5) [20]: 3 (Herbicidal rate of 40% or more and less than 70%)
- herbicidal effect on G: green foxtail (criteria 0-5) [21]: 5 (Herbicidal rate of 90% or more (almost completely withered))
- herbicidal effect on H: barnyard grass (criteria 0-5) [22]: 3 (Herbicidal rate of 40% or more and less than 70%)
- herbicidal effect on I: wild oat (criteria 0-5) [23]: 1 (Herbicidal rate of 5% or more and less than 20%)
- herbicidal effect on J: blackgrass (criteria 0-5) [24]: 2 (Herbicidal rate of 20% or more and less than 40%)
- herbicidal effect on K: Italian ryegrass (criteria 0-5) [25]: 0 (Herbicidal rate of 5% or less (almost no effect))
- herbicidal effect on M: velvetleaf (criteria 0-5) [26]: 1 (Herbicidal rate of 5% or more and less than 20%)
- herbicidal effect on O: lambsquarters (criteria 0-5) [27]: 4 (Herbicidal rate of 70% or more and less than 90%)
- herbicidal effect on P: chickweed (criteria 0-5) [28]: 5 (Herbicidal rate of 90% or more (almost completely withered))
- herbicidal effect on Q: false cleavers (criteria 0-5) [29]: 3 (Herbicidal rate of 40% or more and less than 70%)
- herbicidal effect on R: persian speedwell (criteria 0-5) [30]: 3 (Herbicidal rate of 40% or more and less than 70%)
